Source: US20230151434A1, “REAWAKENING OF DORMANT TUMOR CELLS BY MODIFIED LIPIDS DERIVED FROM STRESS ACTIVATED NEUTROPHILS” (The Wistar Institute of Anatomy and Biology, priority 2020, published 2023)
“Also recorded” adds a separate entry of the source.

Columns and labels:
[1] = test system: LL2^cisA cells; experiment: In vivo stress induction, C57BL/6 mice injected with LL2^cisA cells; parameters: species or system mouse
Excerpt: A total of 2.5×10^4 KPr^p53A cells were intravenously injected to NOD/SCID mice. Beginning 3 weeks after injection, mice were imaged weekly. Luciferin (PerkinElmer) was intraperitoneally injected in mice before imaging according to the manufacturer's instruction. Mice were imaged with IVIS Spectrum In Vivo Imaging System (IVIS, PerkinElmer) to detect luminescent signal coming from growing cancer cells. Mice were put under anesthesia in the induction chamber with isoflurane vaporizer set to 2.5%, at a flow rate of ˜1.5 liters/min. Mice were then transferred in the IVIS imaging stage nose cone inside the IVIS manifold (IVIS manifold nose cones flow set to ˜0.25 LPM). Animals were monitored by video during imaging. Once the images of luciferase/luciferin activity were acquired, the anesthesia was turned off and the animals were returned to their cages. […] Analysis and quantification were performed with IVIS imaging system Living Image Software 4.7.4 (PerkinElmer). […] When signal was detected, mice were sacrificed, and bioluminescent images of the harvested lung were taken. […] If no bioluminescence was detected in lungs after 80 days from last PMN injection, experiments were terminated, and lung tissue were collected. […] Bioluminescence was not detected in any LL2^CisA-injected mice at 3 weeks after injection. Mice were treated with PMN or PMN-MDSC and analyzed as described above. […]

[2] = test system: A549^cisA and OVCAR3^cisA cells; experiment: In vitro co-culture of chemotherapy-arrested human tumor cells with human PMN; format: cell-based
Description: (§1) The KPr cell line (16) was maintained in RPMI 1640 medium (Corning) and 10% FBS (Gibco). Treatment of KPr cells with 250 nM 4-hydroxytamoxifen (4-OHT, Sigma-Aldrich) induced p53 expression. p53-induced cells (KPr^p53) were stained with CellTrace dye for 20 min at 37° C. according to the manufacturer's instructions (Life Technologies) and seeded at 8500 cells/cm^2 in culture in a T175 tissue culture-treated flask (Gibco). After 7 days, cells were detached and sorted based on the CellTrace dye intensity as proliferating (KPr^p53P, with lower CellTrace) and arrested cells (KPr^p53A, with higher-intensity CellTrace; see FIG. 1A for representative image). LL2 cells were seeded at 1000 cells/cm2 and treated for 3 days with 2.5 μM cisplatin (Selleckchem). After that, cells were stained with CellTrace and sorted as described above. OVCAR3 cell senescence was induced by treating 5×10^4 cells/cm2 with 0.5 μM cisplatin for 72 hours. After that time, cells were stained with CellTrace and sorted. A549 senescence was induced by 72-hour treatment with 4 μM cisplatin and cells were sorted after staining with CellTrace. Time points for sorting were chosen as the best to observe separation between arrested and proliferating cells. Cells were sorted on Astrios (Beckman Coulter) or Melody (Becton Dickinson) fluorescence-activated cell sorters.
(§2) Arrested tumor cells were plated at 100 cells/cm^2 in a 48-well tissue culture-treated plate (Costar) for coculture experiments. After 24 hours, PMN-MDSC or PMN were added at indicated ratios. Cocultures were maintained for 48 hours in RPMI 1640+10% FBS in the presence of mouse recombinant GM-CSF (10 ng/ml; Rocky Hill) to ensure neutrophil viability. All control conditions were in the presence of media with GM-CSF. All indicated supplements (NE, S100A8/A9, BGJ398, ICI 118-551, IL-2, MPO inhibitor, LPS, lipids, PMA, and thapsigargin 1 μM) were added to culture at the same time as PMN and maintained for 48 hours. After that, media were removed and replaced by fresh media without GM-CSF. After 1 week, GFP^+ cells in wells were counted via an inverted microscope. When lipid extracts were used, lipids were added to dormant cells in culture at 1 to 0.05 or 0.01 nmol as indicated in each experiment.

[3] = test system: LL2^cisA and AT-3^DoxA cells; experiment: In vitro co-culture of chemotherapy-arrested mouse tumor cells with PMN; format: cell-based; conditions: LLC^cisA
Description: as §1, §2

[4] = test system: KPr, KPr^p53P and KPr^p53A^react cells; experiment: Cell proliferation (luciferase activity); format: cell-based, mouse; conditions: 5 or 10 μM
Description: Two thousand cells per well were seeded in 96-well clear bottom plate in triplicate (Lonza). Sixteen hours after seeding, NE (Sigma-Aldrich) at 0.5 to 5 μM final concentration or BGJ398 at 0.75 μM final concentration (Selleckchem) was added to culture. To test the effect of BGJ398t on KPr^p53A^React cells, escalating doses ranging from 0 to 10 μM final concentrations were used. To detect luciferase activity (proportional to number of cells in culture), Luciferin (PerkinElmer) was added 1:200 from stock according to the manufacturer's instructions and luminescence was measured with a Victor spectrophotometer (PerkinElmer).

[5] = test system: KPr^p53A cells; experiment: In vitro co-culture of dormant tumor cells with PMN (count of GFP+ cells); format: cell-based, mouse; conditions: KPr^p53A
Description: as §1, §2

[6] = test system: patients with prostate cancer; conditions: cited from earlier work

SMILES: CCN1CCN(c2ccc(Nc3cc(N(C)C(=O)Nc4c(Cl)c(OC)cc(OC)c4Cl)ncn3)cc2)CC1 [BGJ398, infigratinib]
- mice with lung tumor lesions despite exposure to stress ([1]; 30 mg/kg, 3 weeks of stress): 0 of 4
- reactivation of A549^cisA cells by PMN treated with S100A8/A9 or NE, effect of FGFR blockade ([2]; A549^cisA): abrogated their reactivation by PMN treated with S100A8/A9 or NE
- reactivation of OVCAR3^cisA cells by PMN treated with S100A8/A9 or NE, effect of FGFR blockade ([2]; OVCAR3^cisA): abrogated their reactivation by PMN treated with S100A8/A9 or NE
- reactivation of LLC^cisA cells by PMN treated with S100A8/A9 or NE, effect of FGFR blockade [3]: abrogated their reactivation by PMN treated with S100A8/A9 or NE
- proliferation of KPr^p53A^react cells [4]: abrogated cell proliferation
- proliferation of KPr^p53P cells [4]: did not affect proliferation of tumor cells
- proliferation of parental KPr cells [4]: did not affect proliferation of tumor cells
- reactivation of KPr^p53A cells by PMN treated with S100A8/A9 or NE, effect of FGFR blockade [5]: abrogated their reactivation by PMN treated with S100A8/A9 or NE

SMILES: COc1cccc2c1c(O)c(C(=O)N(C)c1ccc(C(F)(F)F)cc1)c(=O)n2C [tasquinimod]
- frequency of tumor lesions in stressed LL2^cisA cell-bearing mice ([1]; 0.15 mg/ml in drinking water during stress induction): significantly (P=0.007) reduced frequency of tumor lesions; also recorded: reverting the stress-induced reactivation of dormant tumor cells in mice
- progression-free survival ([6]; patients with prostate cancer, compared to placebo): prolonged progression-free survival compared to placebo
- disease-free survival ([6]; randomized phase III trial): increased disease-free survival
- overall survival ([6]; randomized phase III trial): did not affect overall survival
